Reference: article PMC4382465 (The Journal of antibiotics, 2014)
Values after ≈ are worked out from the molar mass of the structure shown.

Columns and labels:
[1] = system: M. tuberculosis H37Rv RFPr; test: MIC, broth dilution; format: cell-based; settings: Mycobacterium tuberculosis
[2] = system: M. tuberculosis H37Rv INHr; test: MIC, broth dilution; format: cell-based; settings: Mycobacterium tuberculosis

CO[C@H]1/C=C/O[C@@]2(C)Oc3c(C)c(O)c4c(O)c(c(/C=N/N5CCN(C)CC5)c(O)c4c3C2=O)NC(=O)/C(C)=C\C=C\[C@H](C)[C@H](O)[C@@H](C)[C@@H](O)[C@@H](C)[C@H](OC(C)=O)[C@@H]1C [Rifampicin (RFP), Rifampicin]
MIC [1]: > 4 µg/mL

COC1C(C(OC2OC(C(=O)NC3CCCCNC3=O)=CC(O)C2O)C(N)=O)OC(n2ccc(=O)[nH]c2=O)C1OC (stereo not drawn) [UT-01320 (3), 6-{Carbamoyl-[5-(2,4-dioxo-3,4-dihydro-2H-pyrimidin-1-yl)-3,4-dimethoxy-tetrahydro-furan-2-yl]-methoxy}-4,5-dihydroxy-5,6-dihydro-4H-pyran-2-carboxylic acid (2-oxo-azepan-3-yl)-amide]
MIC [2]: 2.5 µg/mL (≈ 4.28 µM)
MIC [1]: 2.45 µg/mL (≈ 4.2 µM)
